PubChem BioAssay AID242 (DTP/NCI, 2004)
Toxic doses and inconclusive results are not listed. Rule for the calls: active = survival T/C of 150% or more; inactive = T/C below 125% in these data.

System: BDF1 mice, Lymphoma 8 ip, survival T/C
Assay: NCI In Vivo Anticancer Drug Screen. Data for tumor model Lymphoma 8 (intraperitoneal) in B6D2F1 (BDF1) mice
Conditions: endpoint: survival time, mean or median, higher = longer survival
Protocol: The antitumor activity of compounds was measured in mice bearing transplantable tumors. Survival or tumor size were measured and the results are expressed as the measurement made in the treated group (T) divided by the measurement made in the vehicle treated control group (C). The tumor model used in this assay is Lymphoma 8 (intraperitoneal) in B6D2F1 (BDF1) mice

Measured: T/C

O=NN(CCCl)C(=O)NCCCl
inactive: dose: 2.64 mg/kg/injection, schedule: Q01DX015 (ip), vehicle: saline 90 % of control

CN(N=O)C(=O)N[C@@H](C=O)[C@@H](O)[C@H](O)[C@H](O)CO
inactive: dose: 12.5 mg/kg/injection, schedule: Q01DX008 (im), vehicle: saline 124 % of control | dose: 12.5 mg/kg/injection, schedule: Q01DX008 (ip), vehicle: saline 116 % of control | dose: 12.5 mg/kg/injection, schedule: Q01DX008 (iv), vehicle: saline 97 % of control | dose: 12.5 mg/kg/injection, schedule: Q01DX008 (sc), vehicle: saline 116 % of control | dose: 25.0 mg/kg/injection, schedule: Q01DX008 (ip), vehicle: saline 115 % of control | dose: 25.0 mg/kg/injection, schedule: Q01DX008 (iv), vehicle: saline 106 % of control | dose: 25.0 mg/kg/injection, schedule: Q01DX008 (sc), vehicle: saline 124 % of control | dose: 50.0 mg/kg/injection, schedule: Q01DX008 (iv), vehicle: saline 107 % of control | dose: 100.0 mg/kg/injection, schedule: Q01DX008 (im), vehicle: saline 86 % of control | dose: 100.0 mg/kg/injection, schedule: Q01DX008 (ip), vehicle: saline 96 % of control | dose: 100.0 mg/kg/injection, schedule: Q01DX008 (iv), vehicle: saline 106 % of control | dose: 100.0 mg/kg/injection, schedule: Q01DX Z (oral), vehicle: saline 100 % of control | dose: 200.0 mg/kg/injection, schedule: Q01DX Z (oral), vehicle: saline 100 % of control | dose: 400.0 mg/kg/injection, schedule: Q01DX Z (oral), vehicle: saline 117 % of control | dose: 800.0 mg/kg/injection, schedule: Q01DX Z (oral), vehicle: saline 97 % of control

CN(C)[C@@H]1C(=O)C(C(N)=O)=C(O)[C@@]2(O)C(=O)C3=C(O)c4c(O)cccc4C[C@H]3C[C@@H]12
inactive: dose: 15.0 mg/kg/injection, schedule: Q01DX015 (ip), vehicle: alkali diluted with saline 93 % of control | dose: 30.0 mg/kg/injection, schedule: Q01DX015 (ip), vehicle: alkali diluted with saline 89 % of control
